Results: patent US8975417B2, “Pyrazolopyrrolidine derivatives and their use in the treatment of disease” (Novartis AG, priority 2013, dated 2015)

Key:
His-Brd4(44-477) = His-Brd4(44-477) (Homo sapiens (Human), UniProt O60885); test: TR-FRET in-vitro binding assay for BRD4; settings: biochemical
Outline: (§1)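 Assay buffer HEPES pH 7.5/NaCl/Tween20/BSA; protein solution 45 nM, peptide solution 60 nM acetyl-H4 (AcK5,8,12,16). Incubated 30 °C for 35 min; Eu-anti-His6 and SA-APC detection, TR-FRET read.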

His-Brd3(20-477) = His-Brd3(20-477) (Homo sapiens (Human), UniProt Q15059); test: TR-FRET in-vitro binding assay for BRD3; settings: biochemical
His-Brd3(20-477), sequence (Q15059 20-477): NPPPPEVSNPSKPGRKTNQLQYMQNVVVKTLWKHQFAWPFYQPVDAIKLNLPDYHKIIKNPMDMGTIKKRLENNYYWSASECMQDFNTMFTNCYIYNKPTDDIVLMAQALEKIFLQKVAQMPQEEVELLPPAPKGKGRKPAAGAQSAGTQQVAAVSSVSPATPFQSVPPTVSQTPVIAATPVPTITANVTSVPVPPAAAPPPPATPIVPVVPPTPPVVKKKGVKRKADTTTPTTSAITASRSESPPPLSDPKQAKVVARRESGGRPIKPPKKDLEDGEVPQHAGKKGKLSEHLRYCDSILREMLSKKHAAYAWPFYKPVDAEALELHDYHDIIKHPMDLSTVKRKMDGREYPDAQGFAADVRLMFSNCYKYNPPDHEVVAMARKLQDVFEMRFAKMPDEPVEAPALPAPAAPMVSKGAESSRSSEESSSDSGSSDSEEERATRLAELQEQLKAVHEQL
Outline: as §1

[1] = target: nuclear BRD4-NUT foci in HCC2494 NUT midline carcinoma cells (Homo sapiens (Human), UniProt O60885+Q86Y26); test: Nut-foci formation assay; format: cell-based; settings: 24 hours, read-out: HCS Brd4-NUT IC50
Method: HCC2494 NUT midline carcinoma cells (expressing BRD4-NUT-fusion) were obtained from the University of Texas Southwestern and cultured in RPMI-1640 medium containing 10% Foetal Calf Serum at 37° C. in a humidified 5% CO2 incubator.
Compound-mediated inhibition of BRD4 activity was monitored by quantification of the number and intensity of nuclear BRD4-NUT foci using automated immunofluorescence microscopy. Briefly, 5000 cells in 20 μL fresh medium were seeded into Poly-D-Lysine-precoated 384-well plates and incubated overnight at 37° C. and 5% CO2, followed by addition of 5 μl medium containing compound dilutions at 5-fold their final intended concentration. Dose-response effects were assessed by 3-fold serial dilutions of the test compound, starting at 10 μM. Following incubation of the cells for 24 hours at 37° C. and 5% CO2, the cells were fixed by incubation with 3.7% formaldehyde for 10 min, followed by immunofluorescence staining using rabbit anti-NUT (Cell Signaling Technologies, Cat#3625) as primary, and AlexaFluor488-labeled goat anti-rabbit (Invitrogen, Cat#A11008) as secondary antibody (latter complemented with 1 μg/mL Hoechst33342 as DNA dye). Assay plates were imaged using the appropriate filter sets on the Cellomics VTi automated fluorescence microscopy platform (ThermoFisher Scientific) and the population average of the number of NUT-foci per nucleus is quantified using the Cellomics Spot Detection BioApplication image analysis algorithm (ThermoFisher Scientific). The effect of a particular test compound concentration on NUT-foci number and intensity is expressed as percentage of the value obtained for cells treated with vehicle only (DMSO, 0.1% final concentration), which was set as 100. Compound concentrations leading to half-maximal (IC50) inhibition of the aforementioned readout parameters were determined using standard four parameter curve fitting.

SMILES	IC50 (His-Brd4(44-477))	IC50 (His-Brd3(20-477))	IC50 [1]
COc1ncc(-n2nc(C)c3c2C(=O)N(c2cc(C)c(=O)n(C)c2)C3c2ccc(Cl)cc2)c(OC)n1 (racemic) [Example 52, 4-(4-chlorophenyl)-1-(2,4-dimethoxypyrimidin-5-yl)-5-(1,5-dimethyl-6-oxo-1,6-dihydropyridin-3-yl)-3-methyl-4,5-dihydropyrrolo[3,4-c]pyrazol-6(1H)-one]	87 nM	69 nM	117 nM
Cc1nn(-c2ccnn2C)c2c1C(c1ccc(Cl)cc1)N(c1cc(C)c(=O)n(C)c1)C2=O (racemic) [Example 74, 4-(4-chlorophenyl)-5-(1,5-dimethyl-6-oxo-1,6-dihydropyridin-3-yl)-3-methyl-1-(1-methyl-1H-pyrazol-5-yl)-4,5-dihydropyrrolo[3,4-c]pyrazol-6(1H)-one]	67 nM	91 nM	44.2 nM
Cc1cc(N2C(=O)c3c(cnn3C3CC3)C2c2ccc(Cl)cc2)cn(C)c1=O (stereo not drawn) [Example 34, 4-(4-chlorophenyl)-1-cyclopropyl-5-(1,5-dimethyl-6-oxo-1,6-dihydropyridin-3-yl)-4,5-dihydropyrrolo[3,4-c]pyrazol-6(1H)-one]	110 nM	110 nM	202 nM
Cn1cc(N2C(=O)c3c(c(C(F)(F)F)nn3C3CC3)C2c2ccc(Cl)cc2)cc(Cl)c1=O (stereo not drawn) [Example 44, 5-(5-chloro-1-methyl-6-oxo-1,6-dihydropyridin-3-yl)-4-(4-chlorophenyl)-1-cyclopropyl-3-(trifluoromethyl)-4,5-dihydropyrrolo[3,4-c]pyrazol-6(1H)-one]	210 nM	280 nM	164 nM
Cc1nn(C2CC2)c2c1[C@@H](c1ccc(Cl)cc1)N(c1cc(C)c(=O)n(C)c1)C2=O [Example 49, (R)-4-(4-chlorophenyl)-1-cyclopropyl-5-(1,5-dimethyl-6-oxo-1,6-dihydropyridin-3-yl)-3-methyl-4,5-dihydropyrrolo[3,4-c]pyrazol-6(1H)-one]	17 nM	19 nM	34.1 nM
Cc1nn(C2CC2)c2c1[C@@H](c1ccc(Cl)cc1)N(c1cc(Cl)c(=O)n(C)c1)C2=O [Example 51, (R)-5-(5-chloro-1-methyl-6-oxo-1,6-dihydropyridin-3-yl)-4-(4-chlorophenyl)-1-cyclopropyl-3-methyl-4,5-dihydropyrrolo[3,4-c]pyrazol-6(1H)-one]	20 nM	21 nM	76.4 nM
COc1ncc(-n2nc3c(c2C(C)C)C(c2ccc(Cl)cc2)N(c2ccc4onc(C)c4c2)C3=O)c(OC)n1 (stereo not drawn) [Example 54, 4-(4-chlorophenyl)-2-(2,4-dimethoxypyrimidin-5-yl)-3-isopropyl-5-(3-methylbenzo-[d]isoxazol-5-yl)-4,5-dihydropyrrolo[3,4-c]pyrazol-6(2H)-one]	260 nM	300 nM	490 nM
COc1ncc(-n2nc3c(c2C)C(c2ccc(Cl)cc2)N(c2cc(Cl)c(=O)n(C)c2)C3=O)c(OC)n1 (stereo not drawn) [Example 55, 5-(5-chloro-1-methyl-6-oxo-1,6-dihydropyridin-3-yl)-4-(4-chlorophenyl)-2-(2,4-dimethoxypyrimidin-5-yl)-3-methyl-4,5-dihydropyrrolo[3,4-c]pyrazol-6(2H)-one]	150 nM	79 nM	54.1 nM
CCc1nn(C2CC2)c2c1C(c1ccc(Cl)cc1)N(c1cc(C)c3nnc(C)n3c1)C2=O (stereo not drawn) [Example 70, 4-(4-chlorophenyl)-1-cyclopropyl-5-(3,8-dimethyl-[1,2,4]triazolo[4,3-a]pyridin-6-yl)-3-ethyl-4,5-dihydropyrrolo[3,4-c]pyrazol-6(1H)-one]	24 nM	29 nM	11.4 nM
COc1ncccc1-n1nc(C)c2c1C(=O)N(c1cc(Cl)c(=O)n(C)c1)C2c1ccc(Cl)cc1 (stereo not drawn) [Example 72, 5-(5-chloro-1-methyl-6-oxo-1,6-dihydropyridin-3-yl)-4-(4-chlorophenyl)-1-(2-methoxypyridin-3-yl)-3-methyl-4,5-dihydropyrrolo[3,4-c]pyrazol-6(1H)-one]	79 nM	73 nM	141 nM
Cc1cc(N2C(=O)c3nn(C)c(O)c3C2c2ccc(Cl)cc2)cn(C)c1=O (stereo not drawn) [Example 73, 4-(4-chlorophenyl)-5-(1,5-dimethyl-6-oxo-1,6-dihydropyridin-3-yl)-3-hydroxy-2-methyl-4,5-dihydropyrrolo[3,4-c]pyrazol-6(2H)-one]	210 nM	200 nM	> 10000 nM
CCOc1c2c(nn1C)C(=O)N(c1cc(C)c(=O)n(C)c1)C2c1ccc(Cl)cc1 (stereo not drawn) [Example 76, 4-(4-chlorophenyl)-5-(1,5-dimethyl-6-oxo-1,6-dihydropyridin-3-yl)-3-ethoxy-2-methyl-4,5-dihydropyrrolo[3,4-c]pyrazol-6(2H)-one]	120 nM	100 nM	106 nM
COc1c2c(nn1C)C(=O)N(c1cc(C)c(=O)n(C)c1)C2c1ccc(Cl)cc1 (stereo not drawn) [Example 77, 4-(4-chlorophenyl)-5-(1,5-dimethyl-6-oxo-1,6-dihydropyridin-3-yl)-3-methoxy-2-methyl-4,5-dihydropyrrolo[3,4-c]pyrazol-6(2H)-one]	130 nM	–	99.5 nM
CCc1nn(CCO)c2c1C(c1ccc(Cl)cc1)N(c1cc(C)c(=O)n(C)c1)C2=O (stereo not drawn) [Example 78, 4-(4-chlorophenyl)-5-(1,5-dimethyl-6-oxo-1,6-dihydropyridin-3-yl)-3-ethyl-1-(2-hydroxyethyl)-4,5-dihydropyrrolo[3,4-c]pyrazol-6(1H)-one]	63 nM	57 nM	39.5 nM
CCc1nn(CCO)c2c1C(c1ccc(Cl)cc1)N(c1cc(C)c3onc(C)c3c1)C2=O (stereo not drawn) [Example 79, 4-(4-chlorophenyl)-5-(3,7-dimethylbenzo[d]isoxazol-5-yl)-3-ethyl-1-(2-hydroxyethyl)-4,5-dihydropyrrolo[3,4-c]pyrazol-6(1H)-one]	78 nM	86 nM	150 nM
CCc1c2c(nn1CCO)C(=O)N(c1cc(C)c3onc(C)c3c1)C2c1ccc(Cl)cc1 (stereo not drawn) [Example 80, 4-(4-chlorophenyl)-5-(3,7-dimethylbenzo[d]isoxazol-5-yl)-3-ethyl-2-(2-hydroxyethyl)-4,5-dihydropyrrolo[3,4-c]pyrazol-6(2H)-one]	35 nM	36 nM	178 nM
Cc1ncccc1-n1nc2c(c1C)C(c1ccc(Cl)cc1)N(c1cc(C)c(=O)n(C)c1)C2=O (stereo not drawn) [Example 81, 4-(4-chlorophenyl)-5-(1,5-dimethyl-6-oxo-1,6-dihydropyridin-3-yl)-3-methyl-2-(2-methylpyridin-3-yl)-4,5-dihydropyrrolo[3,4-c]pyrazol-6(2H)-one]	110 nM	97 nM	74.3 nM
Cc1ncccc1-n1nc(C)c2c1C(=O)N(c1cc(C)c(=O)n(C)c1)C2c1ccc(Cl)cc1 (stereo not drawn) [Example 82, 4-(4-chlorophenyl)-5-(1,5-dimethyl-6-oxo-1,6-dihydropyridin-3-yl)-3-methyl-1-(2-methylpyridin-3-yl)-4,5-dihydropyrrolo[3,4-c]pyrazol-6(1H)-one]	68 nM	96 nM	29.4 nM
Cc1nn(-c2cncn2C)c2c1C(c1ccc(Cl)cc1)N(c1cc(C)c(=O)n(C)c1)C2=O (stereo not drawn) [Example 83, 4-(4-chlorophenyl)-5-(1,5-dimethyl-6-oxo-1,6-dihydropyridin-3-yl)-3-methyl-1-(1-methyl-1H-imidazol-5-yl)-4,5-dihydropyrrolo[3,4-c]pyrazol-6(1H)-one]	91 nM	97 nM	96.8 nM
Cc1nn(C2CC2)c2c1[C@@H](c1ccc(Cl)cc1)N(c1cc(C)c3nnc(C)n3n1)C2=O [Example 122, (R)-4-(4-chlorophenyl)-1-cyclopropyl-5-(3,8-dimethyl-[1,2,4]triazolo[4,3-b]-pyridazin-6-yl)-3-methyl-4,5-dihydropyrrolo[3,4-c]pyrazol-6(1H)-one]	< 11 nM	–	7.3 nM
COCc1nn(C2CC2)c2c1C(c1ccc(Cl)cc1)N(c1cc(C)c3nnc(C)n3c1)C2=O (stereo not drawn) [Example 130, 4-(4-chlorophenyl)-1-cyclopropyl-5-(3,8-dimethyl-[1,2,4]triazolo[4,3-a]pyridin-6-yl)-3-(methoxymethyl)-4,5-dihydropyrrolo[3,4-c]pyrazol-6(1H)-one]	42 nM	–	13.9 nM
